Reference: the supplement of paper PMC10307832

Assays:
Assay in all cases: relative viability (nuclei count vs DMSO), 5 days (fraction); higher = more cells survive
[1] = test system: 201T
Procedure, shortened: (§1)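 Medians of duplicate plates are given as relative viability. That measure is the nuclei count in treated wells divided by the count in vehicle wells. Counts were taken on 4× images of lung cancer cell lines in 1536-well plates, 5 days after pin-tool dosing the day after seeding with one drug alone or a fixed anchor-drug dose plus five library-drug doses (not always all listed) in √10 steps.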

[2] = test system: NCI-H2023
Procedure, shortened: as §1

[3] = test system: NCI-H441
Procedure, shortened: as §1

[4] = test system: NCI-H3122
Procedure, shortened: as §1

[5] = test system: NCI-H1563
Procedure, shortened: as §1

[6] = test system: NCI-H322M
Procedure, shortened: as §1

[7] = test system: LOU-NH91
Procedure, shortened: as §1

[8] = test system: NCI-H1734
Procedure, shortened: as §1

[9] = test system: NCI-H1650
Procedure, shortened: as §1

[10] = test system: UMC-11
Procedure, shortened: as §1

[11] = test system: COR-L23
Procedure, shortened: as §1

[12] = test system: NCI-H520
Procedure, shortened: as §1

[13] = test system: NCI-H2347
Procedure, shortened: as §1

[14] = test system: H3255
Procedure, shortened: as §1

[15] = test system: NCI-H2405
Procedure, shortened: as §1

[16] = test system: NCI-H647
Procedure, shortened: as §1

[17] = test system: PC-14
Procedure, shortened: as §1

[18] = test system: EPLC-272H
Procedure, shortened: as §1

[19] = test system: HCC-15
Procedure, shortened: as §1

Nc1ccn([C@@H]2O[C@H](CO)[C@@H](O)[C@@H]2O)c(=O)n1 [Cytarabine] + CC(C)C[C@H](NC(=O)[C@H](Cc1ccccc1)NC(=O)c1cnccn1)B(O)O [Bortezomib] (partner 0.002 µM)
relative viability ([1]; first compound 0.005 µM): 1.07
relative viability ([1]; first compound 0.01581 µM): 1.11
relative viability ([1]; first compound 0.05 µM): 0.866
relative viability ([1]; first compound 0.1581 µM): 1.01
relative viability ([1]; first compound 0.5 µM): 1
relative viability ([2]; first compound 0.005 µM): 0.469
relative viability ([2]; first compound 0.01581 µM): 0.198
relative viability ([2]; first compound 0.05 µM): 0.17
relative viability ([2]; first compound 0.1581 µM): 0.0751
relative viability ([2]; first compound 0.5 µM): 0.0603
relative viability ([3]; first compound 0.005 µM): 0.612
relative viability ([3]; first compound 0.01581 µM): 0.376
relative viability ([3]; first compound 0.05 µM): 0.483
relative viability ([3]; first compound 0.1581 µM): 0.283
relative viability ([3]; first compound 0.5 µM): 0.162
relative viability ([4]; first compound 0.005 µM): 0.932
relative viability ([4]; first compound 0.01581 µM): 0.96
relative viability ([4]; first compound 0.05 µM): 0.856
relative viability ([4]; first compound 0.1581 µM): 0.676
relative viability ([4]; first compound 0.5 µM): 0.614
relative viability ([5]; first compound 0.005 µM): 0.878
relative viability ([5]; first compound 0.01581 µM): 0.928
relative viability ([5]; first compound 0.05 µM): 0.779
relative viability ([5]; first compound 0.1581 µM): 0.835
relative viability ([5]; first compound 0.5 µM): 0.592
relative viability ([6]; first compound 0.005 µM): 0.718
relative viability ([6]; first compound 0.01581 µM): 1.01
relative viability ([6]; first compound 0.05 µM): 0.717
relative viability ([6]; first compound 0.1581 µM): 0.472
relative viability ([6]; first compound 0.5 µM): 0.404
relative viability ([7]; first compound 0.005 µM): 0.406
relative viability ([7]; first compound 0.01581 µM): 0.47
relative viability ([7]; first compound 0.05 µM): 0.388
relative viability ([7]; first compound 0.1581 µM): 0.338
relative viability ([7]; first compound 0.5 µM): 0.357
relative viability ([8]; first compound 0.005 µM): 0.515
relative viability ([8]; first compound 0.01581 µM): 0.377
relative viability ([8]; first compound 0.05 µM): 0.347
relative viability ([8]; first compound 0.1581 µM): 0.149
relative viability ([8]; first compound 0.5 µM): 0.159
relative viability ([9]; first compound 0.005 µM): 0.215
relative viability ([9]; first compound 0.01581 µM): 0.166
relative viability ([9]; first compound 0.05 µM): 0.172
relative viability ([9]; first compound 0.1581 µM): 0.161
relative viability ([9]; first compound 0.5 µM): 0.154
relative viability ([10]; first compound 0.005 µM): 0.339
relative viability ([10]; first compound 0.01581 µM): 0.381
relative viability ([10]; first compound 0.05 µM): 0.341
relative viability ([10]; first compound 0.1581 µM): 0.155
relative viability ([10]; first compound 0.5 µM): 0.155
relative viability ([11]; first compound 0.005 µM): 1.01
relative viability ([11]; first compound 0.01581 µM): 0.945
relative viability ([11]; first compound 0.05 µM): 0.913
relative viability ([11]; first compound 0.1581 µM): 0.274
relative viability ([11]; first compound 0.5 µM): 0.165
relative viability ([12]; first compound 0.005 µM): 0.412
relative viability ([12]; first compound 0.01581 µM): 0.363
relative viability ([12]; first compound 0.05 µM): 0.697
relative viability ([12]; first compound 0.1581 µM): 0.468
relative viability ([12]; first compound 0.5 µM): 0.34
relative viability ([13]; first compound 0.005 µM): 1.22
relative viability ([13]; first compound 0.01581 µM): 0.951
relative viability ([13]; first compound 0.05 µM): 0.546
relative viability ([13]; first compound 0.1581 µM): 0.61
relative viability ([13]; first compound 0.5 µM): 0.667
relative viability ([14]; first compound 0.005 µM): 0.745
relative viability ([14]; first compound 0.01581 µM): 0.797
relative viability ([14]; first compound 0.05 µM): 0.575
relative viability ([14]; first compound 0.1581 µM): 0.517
relative viability ([14]; first compound 0.5 µM): 0.468
relative viability ([15]; first compound 0.005 µM): 0.911
relative viability ([15]; first compound 0.01581 µM): 0.694
relative viability ([15]; first compound 0.05 µM): 0.662
relative viability ([15]; first compound 0.1581 µM): 0.943
relative viability ([15]; first compound 0.5 µM): 1.03
relative viability ([16]; first compound 0.005 µM): 0.695
relative viability ([16]; first compound 0.01581 µM): 0.423
relative viability ([16]; first compound 0.05 µM): 0.513
relative viability ([16]; first compound 0.1581 µM): 0.113
relative viability ([16]; first compound 0.5 µM): 0.081
relative viability ([17]; first compound 0.005 µM): 0.872
relative viability ([17]; first compound 0.01581 µM): 0.88
relative viability ([17]; first compound 0.05 µM): 0.641
relative viability ([17]; first compound 0.1581 µM): 0.326
relative viability ([17]; first compound 0.5 µM): 0.268
relative viability ([18]; first compound 0.005 µM): 0.906
relative viability ([18]; first compound 0.01581 µM): 0.831
relative viability ([18]; first compound 0.05 µM): 0.53
relative viability ([18]; first compound 0.1581 µM): 0.412
relative viability ([18]; first compound 0.5 µM): 0.453
relative viability ([19]; first compound 0.005 µM): 0.795
relative viability ([19]; first compound 0.01581 µM): 1.03
relative viability ([19]; first compound 0.05 µM): 1.16
relative viability ([19]; first compound 0.1581 µM): 0.883
relative viability ([19]; first compound 0.5 µM): 0.668
